Assay results as given in patent publication US20030229079A1 (published 2003).

SMILES: O=C(CC(=O)c1cccn1Cc1ccc(F)cc1)c1ccncn1
- melting point: 128 to 129 °C
